# Values of other authors in patent US20140323444A1, “ANTI-INFLAMMATORY AND ANTIDIABETIC AGENTS” (priority 2013, published 2014).
# Columns and labels:
# [1] = test system: patients with type 2 diabetes
# [2] = compared with placebo; in contrast to aspirin
# prostaglandin synthesis = settings: in vivo; compared with aspirin and indomethacin
# platelet aggregation = settings: unlike aspirin
structure (smiles),measurement,setting,value
"O=C(Oc1ccccc1C(=O)O)c1ccccc1O [salsalate, 2-(2-hydroxybenzoyl)oxybenzoic acid]",adiponectin concentrations,[1]; in vivo,increase adiponectin concentrations
same,circulating insulin,[1]; in vivo,increase circulating insulin
same,glucose utilization,[1]; in vivo,improve glucose utilization
same,C-reactive protein,[1]; patients with type 2 diabetes,lowers
same,HbA1c levels,[1]; patients with type 2 diabetes,lowers
same,blood glucose,[1]; patients with type 2 diabetes,lowers
same,free fatty acid,[1]; patients with type 2 diabetes,lowers
same,triglycerides,[1]; patients with type 2 diabetes,lowers
same,fecal gastrointestinal blood loss,[2],no greater fecal gastrointestinal blood loss than placebo
same,anti-inflammatory activity,prostaglandin synthesis,equivalent to aspirin and indomethacin
same,inhibition of platelet aggregation,platelet aggregation,does not inhibit platelet aggregation
